The target in data set [1] is human GLP-1 receptor (Homo sapiens, UniProt P43220). The note with it: GFP-GLP-1R U2OS cells; FIG. 6A, 6B (lower dose-range 1 µM, 100 nM, 10 nM).
The conditions of data set [2]: mouse. The procedure: Plasma Stability Testing. Peptide stability was tested in freshly drawn mouse plasma collected in lithium heparin tubes. Peptide plasma incubations were set up with 500 µL of plasma spiked with 10 µM of the individual peptides. Samples were gently shaken in an orbital shaker at 37° C., and 20 µL aliquots were removed at 0, 5, 15, 30, 60, 120, and 200 minutes and added to 150 µL of a mixture containing 50% water/50% acetonitrile to stop further degradation of the peptides. The samples were allowed to sit on ice for the duration of the assay and then transferred to a MultiScreen Solvinert 0.45 µm low-binding hydrophilic PTFE plate (Millipore). The filtrate was directly analyzed by LC/MS/MS using a Thermo BetaSil column, 2.1 × 50 mm, 5 µm. […] The percentage of remaining peptide was determined by the decrease in chromatographic peak area and log transformed to calculate the half-life.

The target of data set [3] is T1, proteinase K (Parengyodontium album, UniProt P06873).
T1 construct: purchased New England Biolabs
T1 sequence (P06873 106-384): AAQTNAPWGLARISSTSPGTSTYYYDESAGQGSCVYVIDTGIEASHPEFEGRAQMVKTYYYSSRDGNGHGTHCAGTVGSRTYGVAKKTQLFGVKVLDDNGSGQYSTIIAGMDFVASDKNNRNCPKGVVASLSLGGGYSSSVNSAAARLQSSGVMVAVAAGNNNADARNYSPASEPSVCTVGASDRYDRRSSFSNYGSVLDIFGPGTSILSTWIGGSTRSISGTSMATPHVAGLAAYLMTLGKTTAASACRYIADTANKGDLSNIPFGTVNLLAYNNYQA
The format is in vitro ADME.

In data set [4] the test system is B6 mice. The experiment in a line: Glucose tolerance test in fasted mice. The format is in vivo, mouse. To be noted: 10 nmol/kg IP, glucose 2 g/kg IP 30 minutes later. Here is the method: To evaluate whether the relative proteolytic stability of SAH-GLP-1(16,23,30) translated into a functional benefit in vivo, glucose tolerance tests in mice were performed. Mice (n=8 per arm) were fasted overnight and administered the corresponding panel of peptides at 10 nmol/kg intraperitoneally followed by a glucose bolus (2 g/kg) 30 minutes later, and then serial serum glucose monitoring was performed over time.
In vivo efficacy testing of SAH-GLP-1 peptides. Male B6 and db/db mice (JAX 000697) at 10-12 weeks of age were housed (5 mice/cage) at a constant room temperature of 24° C. on a normal day-light cycle and provided a standard diet ad libitum. After one week of acclimatization, B6 mice (n=8 per treatment arm) were fasted for 16 hours overnight and the following morning baseline blood glucose levels were measured (Onetouch), followed by intraperitoneal (IP) injection of vehicle (saline) or the indicated peptide (10 nmol/kg). Thirty minutes later, the mice were treated with a bolus IP injection of glucose (2 g/kg, 20% aqueous solution), followed by serial blood glucose monitoring at 0, 15, 30, 60, and 120 minutes. To evaluate the comparative anti-hyperglycemic effects of peptides in db/db mice (n=8 per treatment arm), vehicle (saline) or the indicated peptide (10 nmol/kg) was injected IP and blood glucose levels monitored at 0, 15, 30, 60, and 720 minutes.

Data set [5] deals with GLP-1R expressed on CHO-K1 cells (cAMP Hunter eXpress GLP1R CHO-K1 GPCR Assay, Eurofins, 95-0062E2CP2S) (UniProt P43220 24-463). The data set can be described thus: cell-based or functional assay.

“Also recorded” adds a separate entry of the source. Numbered stars: 1 amine (or outer) side, 2 acyl side, 3 side chain; on linkers, the order of the positions; unused ones are H or OH. Bridge positions count the residues as written; N and C are the ends. Square brackets hold non-standard residues; d marks the D form. code # = α,α-bis(4′-pentenyl)glycine, C=CCCCC(CCCC=C)(N[*:1])C(=O)[*:2]; R8 = C=CCCCCCC[C@@](C)(N)C(=O)O; S8 = C=CCCCCCC[C@](C)(N)C(=O)O; Aib = CC(C)(N)C(=O)O

In general, half-life refers to the time in which the quantity being followed falls by half.

Chain of human GLP-1 receptor (P43220 24-463): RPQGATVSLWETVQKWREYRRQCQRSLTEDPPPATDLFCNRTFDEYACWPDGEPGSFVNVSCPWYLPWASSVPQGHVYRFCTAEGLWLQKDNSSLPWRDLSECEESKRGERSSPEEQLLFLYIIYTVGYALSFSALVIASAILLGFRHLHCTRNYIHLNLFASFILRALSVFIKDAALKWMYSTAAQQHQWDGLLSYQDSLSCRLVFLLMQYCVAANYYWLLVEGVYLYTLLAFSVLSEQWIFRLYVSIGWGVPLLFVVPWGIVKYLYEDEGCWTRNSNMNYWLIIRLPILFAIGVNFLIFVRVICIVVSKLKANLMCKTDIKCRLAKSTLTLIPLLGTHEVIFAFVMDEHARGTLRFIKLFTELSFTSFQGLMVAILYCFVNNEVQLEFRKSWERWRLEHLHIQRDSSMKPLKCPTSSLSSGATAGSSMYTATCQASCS

Consider “HGEGTFTSD8SSYLEG#AAKEFIZWLVKGR (H-HGEGTFTSD[R8]SSYLEG[code #]AAKEFI[S8]WLVKGR-NH2; staple 10-17, 17-24) [SAH-GLP-1(A8G)(16,23,30)]”, for which the “GLP-1R internalization activity compared with the corresponding unstapled / wild-type GLP-1 peptide” value in data set [1] is “more active”.

In the case of `CC[C@H](C)[C@@H]1NC(=O)[C@H](Cc2ccccc2)NC(=O)[C@H](CCC(=O)O)NC(=O)[C@H](CCCCN)NC(=O)[C@H](C)NC(=O)[C@H](C)NC(=O)C2(CCCC=CCCCCCC[C@@](C)(NC(=O)[C@H](CC(=O)O)NC(=O)[C@H](CO)NC(=O)[C@@H](NC(=O)[C@H](Cc3ccccc3)NC(=O)[C@@H](NC(=O)CNC(=O)[C@H](CCC(=O)O)NC(=O)C(C)(C)NC(=O)[C@@H](N)Cc3c[nH]cn3)[C@@H](C)O)[C@@H](C)O)C(=O)N[C@@H](CO)C(=O)N[C@@H](CO)C(=O)N[C@@H](Cc3ccc(O)cc3)C(=O)N[C@@H](CC(C)C)C(=O)N[C@@H](CCC(=O)O)C(=O)NCC(=O)N2)CCCC=CCCCCCC[C@@](C)(C(=O)N[C@@H](Cc2c[nH]c3ccccc23)C(=O)N[C@@H](CC(C)C)C(=O)N[C@H](C(=O)N[C@@H](CCCCN)C(=O)NCC(=O)N[C@@H](CCCNC(=N)N)C(N)=O)C(C)C)NC1=O` (stereo partly drawn) [SAH-GLP-1(16,23,30), HJEGTFTSD8SSYLEG#AAKEFIZWLVKGR], in data set [2], the “plasma half-life relative to semaglutide” value is given as “nearly double”. The half-life in data set [2] (plasma) was 5.33 h; in data set [3] (proteinase K, 50 mM Tris-HCl, pH 7.4, peptides have the A8Aib substitution, read-out: t½ (half-life), proteinase K digestion, intact peptide by LCMS), 3.67 h. In data set [3], the “improvement of proteinase K half-life compared to the singly stapled peptides” value is 2-7 fold. In addition, the “improvement of proteinase K half-life compared to wild-type / control peptide” value in data set [3] was “over 20 fold”.

On to `CC[C@H](C)[C@H](NC(=O)[C@H](Cc1ccccc1)NC(=O)[C@H](CCC(=O)O)NC(=O)[C@H](CCCCN)NC(=O)[C@H](C)NC(=O)[C@H](C)NC(=O)[C@H](CCC(N)=O)NC(=O)CNC(=O)[C@H](CCC(=O)O)NC(=O)[C@H](CC(C)C)NC(=O)[C@H](Cc1ccc(O)cc1)NC(=O)[C@H](CO)NC(=O)[C@H](CO)NC(=O)[C@@H](NC(=O)[C@H](CC(=O)O)NC(=O)[C@H](CO)NC(=O)[C@@H](NC(=O)[C@H](Cc1ccccc1)NC(=O)[C@@H](NC(=O)CNC(=O)[C@H](CCC(=O)O)NC(=O)[C@H](C)NC(=O)[C@@H](N)Cc1c[nH]cn1)[C@@H](C)O)[C@@H](C)O)C(C)C)C(=O)N[C@@H](C)C(=O)N[C@@H](Cc1c[nH]c2ccccc12)C(=O)N[C@@H](CC(C)C)C(=O)N[C@H](C(=O)N[C@@H](CCCCN)C(=O)NCC(=O)N[C@@H](CCCNC(=N)N)C(N)=O)C(C)C` [GLP-1], for which, in data set [4], the “control of induced hyperglycemia in glucose tolerance test” value is listed as “least effective”.

As for `CC[C@H](C)[C@H](NC(=O)[C@H](Cc1ccccc1)NC(=O)[C@H](CCC(=O)O)NC(=O)[C@H](CCCCNC(=O)COCCOCCNC(=O)COCCOCCNC(=O)CC[C@H](NC(=O)CCCCCCCCCCCCCCCCC(=O)O)C(=O)O)NC(=O)[C@H](C)NC(=O)[C@H](C)NC(=O)[C@H](CCC(N)=O)NC(=O)CNC(=O)[C@H](CCC(=O)O)NC(=O)[C@H](CC(C)C)NC(=O)[C@H](Cc1ccc(O)cc1)NC(=O)[C@H](CO)NC(=O)[C@H](CO)NC(=O)[C@@H](NC(=O)[C@H](CC(=O)O)NC(=O)[C@H](CO)NC(=O)[C@@H](NC(=O)[C@H](Cc1ccccc1)NC(=O)[C@@H](NC(=O)CNC(=O)[C@H](CCC(=O)O)NC(=O)C(C)(C)NC(=O)[C@@H](N)Cc1cnc[nH]1)[C@@H](C)O)[C@@H](C)O)C(C)C)C(=O)N[C@@H](C)C(=O)N[C@@H](Cc1c[nH]c2ccccc12)C(=O)N[C@@H](CC(C)C)C(=O)N[C@H](C(=O)N[C@@H](CCCNC(=N)N)C(=O)NCC(=O)N[C@@H](CCCNC(=N)N)C(=O)NCC(=O)O)C(C)C` [semaglutide, reference compound], the “proteolysis by proteinase K (in words)” value in data set [3] (identical conditions as FIG. 7A, FIG. 7B) is “rapidly proteolyzed; also recorded: rapid proteolysis”.

Consider H-H[Aib]EGTFTSD[R8]SSYLEG[code #]AAKEFI[S8]WLVKGR-NH2 (staple 10-17, 17-24) [SAH-GLP-1(16,23,30) A8J], for which the “cAMP induction (cAMP Hunter eXpress luminescence assay), EC50” value in data set [5] worked out at 160 pM.

The values are drawn from patent US20230183309A1 (Dana-Farber Cancer Institute, Inc., priority 2019, published 2023).
